Assay results published in PMC8213057, “Targeting ALK2: An Open Science Approach to Developing Therapeutics for the Treatment of Diffuse Intrinsic Pontine Glioma” (Journal of Medicinal Chemistry, 2020).

Columns and labels:
PLK3 = PLK3 (Homo sapiens, UniProt Q9H4B4); test: biochemical; settings: read-out: % enzyme activity, 1 μM; Run 1, Run 2
MYO3b = target: T1, MYO3b (Homo sapiens, UniProt Q8WXR4); settings: 1 μM; Run 1, Run 2
T1 sequence (Q8WXR4 1-1341): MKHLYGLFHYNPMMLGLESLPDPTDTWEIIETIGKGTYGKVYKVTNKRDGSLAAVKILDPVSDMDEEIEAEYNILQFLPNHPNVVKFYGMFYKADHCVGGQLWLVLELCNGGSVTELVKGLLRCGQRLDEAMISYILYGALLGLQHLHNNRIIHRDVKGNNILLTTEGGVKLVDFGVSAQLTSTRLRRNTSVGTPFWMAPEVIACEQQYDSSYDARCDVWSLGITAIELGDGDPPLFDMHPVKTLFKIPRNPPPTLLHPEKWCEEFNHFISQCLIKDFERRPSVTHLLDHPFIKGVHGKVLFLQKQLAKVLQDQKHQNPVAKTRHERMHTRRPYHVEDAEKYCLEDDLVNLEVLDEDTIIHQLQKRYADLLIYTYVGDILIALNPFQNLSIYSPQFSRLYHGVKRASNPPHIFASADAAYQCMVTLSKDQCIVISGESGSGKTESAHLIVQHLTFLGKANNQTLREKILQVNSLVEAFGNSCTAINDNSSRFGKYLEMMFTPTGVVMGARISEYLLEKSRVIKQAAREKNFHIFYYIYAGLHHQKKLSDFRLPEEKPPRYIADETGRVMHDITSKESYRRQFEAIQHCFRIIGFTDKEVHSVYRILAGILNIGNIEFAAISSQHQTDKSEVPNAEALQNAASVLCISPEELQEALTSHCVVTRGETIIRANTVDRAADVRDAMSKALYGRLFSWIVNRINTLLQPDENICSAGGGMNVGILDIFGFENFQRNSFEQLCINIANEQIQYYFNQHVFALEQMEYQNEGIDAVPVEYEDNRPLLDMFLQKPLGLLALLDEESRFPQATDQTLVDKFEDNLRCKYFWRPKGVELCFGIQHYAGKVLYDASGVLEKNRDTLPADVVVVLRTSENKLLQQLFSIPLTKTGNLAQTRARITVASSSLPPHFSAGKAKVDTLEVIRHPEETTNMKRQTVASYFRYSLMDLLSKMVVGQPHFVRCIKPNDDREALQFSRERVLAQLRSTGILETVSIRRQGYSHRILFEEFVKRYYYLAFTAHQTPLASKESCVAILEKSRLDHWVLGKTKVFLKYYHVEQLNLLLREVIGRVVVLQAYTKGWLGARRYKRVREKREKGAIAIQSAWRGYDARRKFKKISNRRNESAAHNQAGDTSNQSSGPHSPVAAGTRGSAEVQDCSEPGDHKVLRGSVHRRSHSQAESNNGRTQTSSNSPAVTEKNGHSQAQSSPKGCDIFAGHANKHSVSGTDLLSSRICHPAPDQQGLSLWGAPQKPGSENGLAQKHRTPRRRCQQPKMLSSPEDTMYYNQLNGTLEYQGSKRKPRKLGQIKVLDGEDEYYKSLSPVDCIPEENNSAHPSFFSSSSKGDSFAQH

AURORA B = AURORA B (Homo sapiens, UniProt Q96GD4); test: biochemical; settings: read-out: % enzyme activity, 1 μM; Run 1, Run 2
Sequence of AURORA B (Q96GD4 whole entry): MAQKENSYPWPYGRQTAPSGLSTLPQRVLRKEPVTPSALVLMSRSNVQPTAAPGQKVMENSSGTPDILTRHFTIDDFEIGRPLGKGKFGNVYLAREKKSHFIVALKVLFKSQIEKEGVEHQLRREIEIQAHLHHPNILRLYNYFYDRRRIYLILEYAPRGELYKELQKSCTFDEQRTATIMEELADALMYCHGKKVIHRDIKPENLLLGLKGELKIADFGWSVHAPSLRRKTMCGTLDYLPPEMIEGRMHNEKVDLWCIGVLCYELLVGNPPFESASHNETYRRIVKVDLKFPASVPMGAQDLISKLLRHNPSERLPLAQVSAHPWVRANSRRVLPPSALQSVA

CDK9/cyclin T1 = CDK9/cyclin T1 (Homo sapiens, UniProt P50750); test: biochemical; settings: read-out: % enzyme activity, 1 μM; Run 1, Run 2
Sequence of CDK9/cyclin T1 (P50750 whole entry): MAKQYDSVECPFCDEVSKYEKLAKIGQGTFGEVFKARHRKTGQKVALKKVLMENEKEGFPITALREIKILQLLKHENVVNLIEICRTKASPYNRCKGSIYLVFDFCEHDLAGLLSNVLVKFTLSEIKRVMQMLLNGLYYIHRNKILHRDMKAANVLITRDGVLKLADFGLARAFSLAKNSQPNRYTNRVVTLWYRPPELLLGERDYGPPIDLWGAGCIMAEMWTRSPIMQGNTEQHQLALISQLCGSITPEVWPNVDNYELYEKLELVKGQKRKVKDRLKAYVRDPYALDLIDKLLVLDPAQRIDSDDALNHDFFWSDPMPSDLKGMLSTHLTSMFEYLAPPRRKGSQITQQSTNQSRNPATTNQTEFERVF
Sequence of CDK9/cyclin T1 (O60563 whole entry partner): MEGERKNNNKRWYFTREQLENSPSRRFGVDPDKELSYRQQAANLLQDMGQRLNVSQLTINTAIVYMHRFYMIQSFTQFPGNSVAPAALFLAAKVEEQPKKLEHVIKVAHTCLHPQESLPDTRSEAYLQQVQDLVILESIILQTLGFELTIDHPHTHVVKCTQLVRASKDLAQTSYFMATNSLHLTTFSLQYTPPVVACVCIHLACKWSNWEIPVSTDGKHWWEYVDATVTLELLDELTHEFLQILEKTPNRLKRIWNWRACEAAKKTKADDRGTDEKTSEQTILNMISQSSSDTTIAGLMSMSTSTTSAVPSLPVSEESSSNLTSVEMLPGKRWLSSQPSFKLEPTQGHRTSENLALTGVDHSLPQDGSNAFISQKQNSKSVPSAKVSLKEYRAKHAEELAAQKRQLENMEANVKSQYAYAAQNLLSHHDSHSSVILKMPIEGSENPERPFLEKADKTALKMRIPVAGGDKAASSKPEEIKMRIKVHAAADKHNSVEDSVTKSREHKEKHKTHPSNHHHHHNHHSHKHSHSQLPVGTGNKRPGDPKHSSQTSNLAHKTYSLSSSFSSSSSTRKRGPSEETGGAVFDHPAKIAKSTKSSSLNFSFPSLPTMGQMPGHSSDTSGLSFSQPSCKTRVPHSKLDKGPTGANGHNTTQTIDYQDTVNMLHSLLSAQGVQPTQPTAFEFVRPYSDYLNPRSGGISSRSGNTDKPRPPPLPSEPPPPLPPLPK

EPHA6 = target: T2, EPHA6 (Homo sapiens, UniProt Q9UF33); test: biochemical; settings: read-out: % enzyme activity, 1 μM; Run 1, Run 2
T2 sequence (Q9UF33 23-1036): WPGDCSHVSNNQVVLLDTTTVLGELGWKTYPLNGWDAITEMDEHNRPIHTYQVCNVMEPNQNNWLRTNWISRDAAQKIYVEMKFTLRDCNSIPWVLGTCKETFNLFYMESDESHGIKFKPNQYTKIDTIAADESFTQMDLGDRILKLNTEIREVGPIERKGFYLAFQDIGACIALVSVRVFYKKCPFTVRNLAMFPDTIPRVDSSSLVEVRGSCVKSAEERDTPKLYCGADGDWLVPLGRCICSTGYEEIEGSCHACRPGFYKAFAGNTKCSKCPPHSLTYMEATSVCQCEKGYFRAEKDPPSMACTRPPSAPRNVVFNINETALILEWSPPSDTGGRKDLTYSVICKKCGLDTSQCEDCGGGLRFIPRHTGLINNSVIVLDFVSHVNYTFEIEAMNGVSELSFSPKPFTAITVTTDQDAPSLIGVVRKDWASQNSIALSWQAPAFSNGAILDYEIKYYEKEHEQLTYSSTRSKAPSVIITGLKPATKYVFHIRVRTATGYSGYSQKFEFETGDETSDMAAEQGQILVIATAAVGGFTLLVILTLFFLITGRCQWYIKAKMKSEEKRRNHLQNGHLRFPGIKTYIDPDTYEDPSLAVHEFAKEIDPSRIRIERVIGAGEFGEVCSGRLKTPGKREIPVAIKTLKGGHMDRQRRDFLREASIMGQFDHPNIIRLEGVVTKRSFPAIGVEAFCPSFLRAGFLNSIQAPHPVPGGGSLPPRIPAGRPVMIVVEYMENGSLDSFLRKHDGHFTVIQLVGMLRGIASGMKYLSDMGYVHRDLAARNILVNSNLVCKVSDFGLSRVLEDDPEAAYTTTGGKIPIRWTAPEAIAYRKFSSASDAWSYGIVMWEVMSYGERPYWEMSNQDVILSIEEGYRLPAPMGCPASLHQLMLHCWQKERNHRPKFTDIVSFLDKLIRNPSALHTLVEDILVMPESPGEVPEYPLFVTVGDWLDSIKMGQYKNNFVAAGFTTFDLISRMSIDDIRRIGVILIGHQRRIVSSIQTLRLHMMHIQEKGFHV

Sequence of PLK3 (Q9H4B4 whole entry): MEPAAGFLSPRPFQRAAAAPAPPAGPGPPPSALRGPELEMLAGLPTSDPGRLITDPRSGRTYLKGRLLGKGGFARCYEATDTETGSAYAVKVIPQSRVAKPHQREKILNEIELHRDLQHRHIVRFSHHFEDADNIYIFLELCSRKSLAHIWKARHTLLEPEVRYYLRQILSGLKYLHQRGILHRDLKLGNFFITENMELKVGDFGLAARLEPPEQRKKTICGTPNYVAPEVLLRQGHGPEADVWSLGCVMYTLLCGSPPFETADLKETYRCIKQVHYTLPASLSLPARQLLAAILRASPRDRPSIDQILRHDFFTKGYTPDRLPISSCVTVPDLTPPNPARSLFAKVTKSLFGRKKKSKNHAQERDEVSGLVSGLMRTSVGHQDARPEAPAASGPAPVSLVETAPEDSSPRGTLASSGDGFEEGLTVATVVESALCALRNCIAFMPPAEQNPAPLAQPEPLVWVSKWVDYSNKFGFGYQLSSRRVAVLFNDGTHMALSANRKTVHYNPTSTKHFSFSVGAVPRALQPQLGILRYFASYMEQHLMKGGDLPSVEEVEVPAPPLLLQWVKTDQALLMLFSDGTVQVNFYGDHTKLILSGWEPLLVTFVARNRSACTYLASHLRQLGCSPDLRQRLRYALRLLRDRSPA

| Compound | remaining activity at 1 µM (PLK3) [%] | % enzyme activity (MYO3b) [%] | remaining activity at 1 µM (AURORA B) [%] | remaining activity at 1 µM (CDK9/cyclin T1) [%] | remaining activity at 1 µM (EPHA6) [%] |
| --- | --- | --- | --- | --- | --- |
| COc1cc(-c2cncc(-c3ccc(N4C[C@@H](C)N(C)[C@@H](C)C4)cc3)c2C)cc(F)c1C(N)=O [Compound 26c, 2-Fluoro-6-methoxy-4-(4-methyl-5-(4-((3R,5S)-3,4,5-trimethylpiperazin-1-yl)phenyl)pyridin-3-yl)benzamide] | 97.7 | 85.13 | 105 | 97.1 | 106 |
| COc1cc(-c2cncc(-c3ccc(N4CCN(C)CC4)cc3)c2C)cc(F)c1C(N)=O [Compound 26a, 2-Fluoro-6-methoxy-4-(4-methyl-5-(4-(4-methylpiperazin-1-yl)phenyl)pyridin-3-yl)benzamide] | 95 | 81.31 | 102 | 90.8 | 105 |
